# According to patent US20140088103A1, “(FUSED RING ARYLAMINO AND HETEROCYCLYLAMINO) PYRIMIDINYL AND 1,3,5-TRIAZINYL BENZIMIDAZOLES, PHARMACEUTICAL COMPOSITIONS THEREOF, AND THEIR USE IN TREATING PROLIFERATIVE DISEASES” (MEI PHARMA, INC., priority 2011, published 2014):
# How the values were obtained:
# [1] = target: T1, PI3K alpha (p110α) (Homo sapiens, UniProt P42336); assay: Luciferase-based luminescence assay (Kinase GLO), PI3K alpha; assay type: biochemical; conditions: 1.65 nM enzyme, 50 μM PIP2, 25 μM ATP, 1 hour reaction
# T1 construct: purchased Invitrogen Corp., Carlsbad, Calif., USA
# Description: (§1) PI3K catalyzes the conversion of phosphatidylinositol-4,5-bisphosphate (PIP2) and ATP to phosphatidylinositol-3,4,5-trisphosphate (PIP3) and ADP. PI3K enzymatic activity was determined by measuring the amount of ATP consumed following the kinase reaction using a luciferase-based luminescence assay (Kinase GLO®, Promega Corp., Madison, Wis., USA) in a reaction buffer. The reaction buffer contained 50 mM HEPES, pH 7.5, 3 mM MgCl2, 1 mM EGTA, 100 mM NaCl, 0.03% CHAPS, and 2 mM DTT. Compounds for testing were dissolved and serially diluted in 100% DMSO (total of 10 concentrations), and then diluted 1:25 in the reaction buffer. PI3K enzyme solutions were prepared by diluting PI3K alpha (Invitrogen Corp., Carlsbad, Calif., USA) or PI3K delta (Millipore, Billerica, Mass., USA) in the reaction buffer to 4× the final assay concentration. The final concentrations of enzymes were 1.65 nM and 6.86 nM for PI3K alpha and PI3K delta, respectively. A substrate solution was prepared by mixing PIP2 and ATP in reaction buffer at 2× the final assay concentration. The final concentrations were 50 μM and 25 μM for PIP2 and ATP, respectively. To individual wells of white low volume 384-well assay plates were added 2.5 μl each of the compound and kinase mixtures, followed by shaking. The reactions were started by adding 5 μl of substrate mixture per well and shaking. The assay plates were covered and reactions were allowed to proceed for 1 hour (PI3K alpha) or 2 hours (PI3K delta), after which 10 μl of Kinase GLO® reagent was added. The plates were briefly centrifuged and incubated for 10 minutes, after which luminescence was measured using a FlexStation plate reader (Molecular Devices, Sunnyvale, Calif., USA). IC50 values were determined by curve fitting using Graphpad Prism software (Graphpad Software, La Jolla, Calif., USA).
# [2] = target: T2, PI3K delta (p110δ) (Homo sapiens, UniProt O00329); assay: Luciferase-based luminescence assay (Kinase GLO), PI3K delta; assay type: biochemical; conditions: for IC50: 6.86 nM enzyme, 50 μM PIP2, 25 μM ATP, 2 hours reaction; for α/δ ratio: ratio of IC50 against PI3Kα over IC50 against PI3Kδ
# T2 construct: purchased Millipore, Billerica, Mass., USA
# Description: as §1
# T2 sequence (O00329 whole entry): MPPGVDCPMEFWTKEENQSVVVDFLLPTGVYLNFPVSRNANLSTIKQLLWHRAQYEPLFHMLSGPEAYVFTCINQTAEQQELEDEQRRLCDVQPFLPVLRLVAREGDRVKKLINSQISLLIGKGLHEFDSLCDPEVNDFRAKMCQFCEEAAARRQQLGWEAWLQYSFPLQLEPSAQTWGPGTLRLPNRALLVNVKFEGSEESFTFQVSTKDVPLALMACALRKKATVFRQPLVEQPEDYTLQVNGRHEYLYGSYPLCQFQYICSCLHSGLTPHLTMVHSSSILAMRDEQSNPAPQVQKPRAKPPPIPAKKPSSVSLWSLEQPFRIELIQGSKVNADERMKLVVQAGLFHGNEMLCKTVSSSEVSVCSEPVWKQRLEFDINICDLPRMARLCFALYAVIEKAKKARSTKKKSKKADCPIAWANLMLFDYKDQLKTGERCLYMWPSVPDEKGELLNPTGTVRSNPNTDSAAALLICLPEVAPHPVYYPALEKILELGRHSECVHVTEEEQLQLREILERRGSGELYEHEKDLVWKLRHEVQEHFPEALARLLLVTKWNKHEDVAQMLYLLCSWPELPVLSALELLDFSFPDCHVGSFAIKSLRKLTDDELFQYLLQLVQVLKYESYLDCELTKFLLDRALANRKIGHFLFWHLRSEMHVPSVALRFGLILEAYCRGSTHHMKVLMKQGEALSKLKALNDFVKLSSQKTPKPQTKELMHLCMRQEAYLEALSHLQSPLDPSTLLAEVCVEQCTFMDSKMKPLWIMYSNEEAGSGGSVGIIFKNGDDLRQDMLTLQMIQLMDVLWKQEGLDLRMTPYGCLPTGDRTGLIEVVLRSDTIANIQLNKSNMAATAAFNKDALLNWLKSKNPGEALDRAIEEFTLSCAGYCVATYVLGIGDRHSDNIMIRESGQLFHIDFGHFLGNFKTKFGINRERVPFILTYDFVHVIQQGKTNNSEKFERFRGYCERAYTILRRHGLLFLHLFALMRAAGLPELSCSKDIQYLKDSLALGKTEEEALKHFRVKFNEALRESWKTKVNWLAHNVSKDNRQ
# T2 sequence (P27986 whole entry partner): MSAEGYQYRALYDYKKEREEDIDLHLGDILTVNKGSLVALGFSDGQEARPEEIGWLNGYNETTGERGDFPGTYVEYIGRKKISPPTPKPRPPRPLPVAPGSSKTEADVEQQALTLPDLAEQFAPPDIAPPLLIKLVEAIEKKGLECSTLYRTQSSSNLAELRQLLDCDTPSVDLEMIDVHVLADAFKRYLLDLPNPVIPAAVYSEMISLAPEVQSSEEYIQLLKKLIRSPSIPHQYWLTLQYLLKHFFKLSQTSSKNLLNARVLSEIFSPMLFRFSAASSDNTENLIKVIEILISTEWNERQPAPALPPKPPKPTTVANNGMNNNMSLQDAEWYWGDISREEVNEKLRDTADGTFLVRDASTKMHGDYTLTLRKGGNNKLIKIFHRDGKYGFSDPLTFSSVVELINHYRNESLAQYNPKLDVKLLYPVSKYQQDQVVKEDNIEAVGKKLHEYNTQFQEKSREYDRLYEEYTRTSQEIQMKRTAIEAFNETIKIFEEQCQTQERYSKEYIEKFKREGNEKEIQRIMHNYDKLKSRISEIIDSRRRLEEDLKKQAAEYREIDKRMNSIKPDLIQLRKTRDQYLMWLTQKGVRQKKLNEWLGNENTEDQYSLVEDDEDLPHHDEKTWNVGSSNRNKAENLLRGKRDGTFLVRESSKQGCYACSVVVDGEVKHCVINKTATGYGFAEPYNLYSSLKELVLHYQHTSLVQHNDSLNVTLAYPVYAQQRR
# T1 sequence (P42336 whole entry): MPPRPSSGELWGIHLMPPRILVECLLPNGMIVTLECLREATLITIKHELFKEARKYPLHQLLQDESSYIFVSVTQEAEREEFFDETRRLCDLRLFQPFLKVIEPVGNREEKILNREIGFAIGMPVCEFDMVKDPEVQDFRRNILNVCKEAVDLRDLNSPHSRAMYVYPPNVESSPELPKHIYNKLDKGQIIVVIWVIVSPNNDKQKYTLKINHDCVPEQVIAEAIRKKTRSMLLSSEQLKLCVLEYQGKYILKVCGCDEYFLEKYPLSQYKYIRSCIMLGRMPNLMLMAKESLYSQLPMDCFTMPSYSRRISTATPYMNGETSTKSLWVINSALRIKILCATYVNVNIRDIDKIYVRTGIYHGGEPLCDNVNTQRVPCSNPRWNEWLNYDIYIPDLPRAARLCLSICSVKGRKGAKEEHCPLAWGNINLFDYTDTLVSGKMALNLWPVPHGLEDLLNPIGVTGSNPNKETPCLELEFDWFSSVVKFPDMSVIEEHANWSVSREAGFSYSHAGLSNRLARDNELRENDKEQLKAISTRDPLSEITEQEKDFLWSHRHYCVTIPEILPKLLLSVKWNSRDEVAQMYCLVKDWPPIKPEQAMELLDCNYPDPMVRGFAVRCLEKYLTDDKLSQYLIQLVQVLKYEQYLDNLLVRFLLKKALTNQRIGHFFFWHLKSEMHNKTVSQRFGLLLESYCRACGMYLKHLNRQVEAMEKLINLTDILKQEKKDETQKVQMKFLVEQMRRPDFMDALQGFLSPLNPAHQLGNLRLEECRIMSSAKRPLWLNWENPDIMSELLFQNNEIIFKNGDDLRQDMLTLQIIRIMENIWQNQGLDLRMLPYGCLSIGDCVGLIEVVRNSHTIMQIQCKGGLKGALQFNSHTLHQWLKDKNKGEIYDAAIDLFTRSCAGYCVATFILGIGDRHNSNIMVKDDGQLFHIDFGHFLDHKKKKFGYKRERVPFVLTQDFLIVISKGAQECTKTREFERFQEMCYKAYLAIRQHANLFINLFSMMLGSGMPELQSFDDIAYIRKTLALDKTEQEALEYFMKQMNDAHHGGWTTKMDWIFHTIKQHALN
# T1 sequence (P27986 whole entry partner): as the sequence (P27986 whole entry partner) above
Compound,IC50 [1],IC50 [2],α/δ ratio [2]
"FC(F)c1nc2ccccc2n1-c1nc(NC2CCCc3ccccc32)nc(N2CCOCC2)n1 (stereo not drawn) [Compound A1, 4-(2-(difluoromethyl)-1H-benzo[d]imidazol-1-yl)-6-morpholino-N-(1,2,3,4-tetrahydronaphthalen-1-yl)-1,3,5-triazin-2-amine]",> 500 nM,100 to 200 nM,A′ (A′ represents a ratio of greater than 8)
"FC(F)c1nc2ccccc2n1-c1nc(N[C@H]2CCCc3ccccc32)nc(N2CCOCC2)n1 [Compound A2, (S)-4-(2-(difluoromethyl)-1H-benzo[d]imidazol-1-yl)-6-morpholino-N-(1,2,3,4-tetrahydronaphthalen-1-yl)-1,3,5-triazin-2-amine]",> 500 nM,≤ 100 nM,A′ (A′ represents a ratio of greater than 8)
"FC(F)c1nc2ccccc2n1-c1nc(N[C@@H]2CCCc3ccccc32)nc(N2CCOCC2)n1 [Compound A3, (R)-4-(2-(difluoromethyl)-1H-benzo[d]imidazol-1-yl)-6-morpholino-N-(1,2,3,4-tetrahydronaphthalen-1-yl)-1,3,5-triazin-2-amine]",> 500 nM,> 500 nM,B′ (B′ represents a ratio of no less than 4 but no greater than 8)
"FC(F)c1nc2ccccc2n1-c1nc(NC2CCc3ccccc32)nc(N2CCOCC2)n1 (stereo not drawn) [Compound A4, 4-(2-(difluoromethyl)-1H-benzo[d]imidazol-1-yl)-N-(2,3-dihydro-1H-inden-1-yl)-6-morpholino-1,3,5-triazin-2-amine]",> 500 nM,≤ 100 nM,A′ (A′ represents a ratio of greater than 8)
"FC(F)c1nc2ccccc2n1-c1nc(N[C@H]2CCc3ccccc32)nc(N2CCOCC2)n1 [Compound A5, (S)-4-(2-(difluoromethyl)-1H-benzo[d]imidazol-1-yl)-N-(2,3-dihydro-1H-inden-1-yl)-6-morpholino-1,3,5-triazin-2-amine]",> 500 nM,100 to 200 nM,A′ (A′ represents a ratio of greater than 8)
"FC(F)c1nc2ccccc2n1-c1nc(N[C@@H]2CCc3ccccc32)nc(N2CCOCC2)n1 [Compound A6, (R)-4-(2-(difluoromethyl)-1H-benzo[d]imidazol-1-yl)-N-(2,3-dihydro-1H-inden-1-yl)-6-morpholino-1,3,5-triazin-2-amine]",> 500 nM,200 to 500 nM,C′ (C′ represents a ratio of greater than 2 but less than 4)
"FC(F)c1nc2ccccc2n1-c1nc(NC2CCc3cc(Cl)ccc32)nc(N2CCOCC2)n1 (stereo not drawn) [Compound A7, N-(5-chloro-2,3-dihydro-1H-inden-1-yl)-4-(2-(difluoromethyl)-1H-benzo[d]imidazol-1-yl)-6-morpholino-1,3,5-triazin-2-amine]",> 500 nM,> 500 nM,A′ (A′ represents a ratio of greater than 8)
"FC(F)c1nc2ccccc2n1-c1nc(NC2CCc3ccc(Cl)cc32)nc(N2CCOCC2)n1 (stereo not drawn) [Compound A8, N-(6-chloro-2,3-dihydro-1H-inden-1-yl)-4-(2-(difluoromethyl)-1H-benzo[d]imidazol-1-yl)-6-morpholino-1,3,5-triazin-2-amine]",> 500 nM,200 to 500 nM,A′ (A′ represents a ratio of greater than 8)
"COc1ccc2c(c1)CCC2Nc1nc(N2CCOCC2)nc(-n2c(C(F)F)nc3ccccc32)n1 (stereo not drawn) [Compound A9, 4-(2-(difluoromethyl)-1H-benzo[d]imidazol-1-yl)-N-(5-methoxy-2,3-dihydro-1H-inden-1-yl)-6-morpholino-1,3,5-triazin-2-amine]",> 500 nM,200 to 500 nM,C′ (C′ represents a ratio of greater than 2 but less than 4)
"COc1ccc2c(c1)C(Nc1nc(N3CCOCC3)nc(-n3c(C(F)F)nc4ccccc43)n1)CC2 (stereo not drawn) [Compound A10, 4-(2-(difluoromethyl)-1H-benzo[d]imidazol-1-yl)-N-(6-methoxy-2,3-dihydro-1H-inden-1-yl)-6-morpholino-1,3,5-triazin-2-amine]",> 500 nM,200 to 500 nM,C′ (C′ represents a ratio of greater than 2 but less than 4)
"FC(F)c1nc2ccccc2n1-c1nc(NCc2ccccc2)nc(N2CCOCC2)n1 [Ref. 1, N-benzyl-4-(2-(difluoromethyl)-1H-benzo[d]imidazol-1-yl)-6-morpholino-1,3,5-triazin-2-amine, reference compound]",100 to 200 nM,100 to 200 nM,D′ (D′ represents a ratio of no greater than 2)
